Consider two compounds from paper PMC6070976, “Interaction of Ochratoxin A and Its Thermal Degradation Product 2′R-Ochratoxin A with Human Serum Albumin” (Toxins, 2018).

The target in data set [1] is T1, human serum albumin (HSA) (Homo sapiens, UniProt P02768).
T1 construct: gene ALB
Briefly: fluorescence quenching/enhancement and anisotropy titrations; also equilibrium dialysis, HSA affinity chromatography, CD. The format is binding. To be noted: read-out: logK (Hyperquad, Figure 3) (converted).

Data set [2] deals with T1, human serum albumin (HSA). In words: equilibrium dialysis; also fluorescence titrations and anisotropy, HSA affinity chromatography, CD. Type of data set: binding. The settings on record: read-out: % bound.

T1 sequence (P02768 25-609): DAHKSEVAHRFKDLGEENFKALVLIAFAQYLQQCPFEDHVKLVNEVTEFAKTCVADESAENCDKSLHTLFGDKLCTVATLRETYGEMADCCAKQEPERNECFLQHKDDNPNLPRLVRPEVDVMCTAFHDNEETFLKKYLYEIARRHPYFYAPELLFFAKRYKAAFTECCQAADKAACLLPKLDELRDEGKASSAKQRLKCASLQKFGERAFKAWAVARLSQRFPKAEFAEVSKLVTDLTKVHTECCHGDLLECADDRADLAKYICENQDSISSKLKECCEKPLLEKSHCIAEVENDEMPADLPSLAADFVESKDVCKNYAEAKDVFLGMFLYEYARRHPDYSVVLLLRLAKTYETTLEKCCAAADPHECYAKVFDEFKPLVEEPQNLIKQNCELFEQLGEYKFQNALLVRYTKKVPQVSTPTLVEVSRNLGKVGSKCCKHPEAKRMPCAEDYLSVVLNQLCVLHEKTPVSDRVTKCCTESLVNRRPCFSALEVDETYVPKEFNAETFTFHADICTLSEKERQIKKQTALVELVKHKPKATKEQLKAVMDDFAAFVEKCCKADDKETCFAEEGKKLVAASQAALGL

For the compound `C[C@@H]1Cc2c(Cl)cc(C(=O)N[C@H](Cc3ccccc3)C(=O)O)c(O)c2C(=O)O1` [2′R-OTA, 2′R-Ochratoxin A], the Kd in data set [1] was 589 nM.

`C[C@@H]1Cc2c(Cl)cc(C(=O)N[C@@H](Cc3ccccc3)C(=O)O)c(O)c2C(=O)O1` [OTA, Ochratoxin A]: in data set [2], the fraction unbound was less than 0.004.
